Assay results: ChEMBL document CHEMBL1152446, “Identification of an orally efficacious matrix metalloprotease 12 inhibitor for potential treatment of asthma” (J Med Chem, 2009)

Key:
in vitro [1] = conditions: human, liver microsomes
Collagenase 3 = Collagenase 3 (Homo sapiens, UniProt P45452); assay: Inhibition of human recombinant MMP13
in vitro [2] = conditions: rat, liver microsomes
[3] = Metabolic stability in C57BL/6 mouse liver microsome assessed as half life; assay type: ADME; conditions: liver microsomes

SMILES	half-life (in vitro [1]) [min]	IC50 (Collagenase 3) [nM]	half-life (in vitro [2]) [min]	half-life [3] [min]
CC(C)[C@H](NS(=O)(=O)c1ccc2c(c1)sc1cc(N)ccc12)C(=O)O	> 30	> 1000	> 30	> 30
CC(C)[C@H](NS(=O)(=O)c1ccc2c(c1)oc1cc(N3CCOC3=O)ccc12)C(=O)O	> 30	370	> 30	> 30
CC(C)[C@H](NS(=O)(=O)c1ccc2sc3ccccc3c2c1)C(=O)O	–	60000	–	–
COC(=O)Nc1ccc2c(c1)sc1cc(S(=O)(=O)N[C@@H](C(=O)O)C(C)C)ccc12	> 30	1350	> 30	> 30
CCOC(=O)Nc1ccc2c(c1)sc1cc(S(=O)(=O)N[C@@H](C(=O)O)C(C)C)ccc12	> 30	–	> 30	> 30
CC(C)[C@H](NS(=O)(=O)c1ccc2c(c1)sc1cc(NC(=O)OCCS(C)(=O)=O)ccc12)C(=O)O	> 30	40	> 30	> 30
CC(C)[C@H](NS(=O)(=O)c1ccc2c(c1)sc1cc(NC(=O)Nc3ccccc3)ccc12)C(=O)O	> 30	269	> 30	> 30
COC(=O)Nc1ccc2c(c1)oc1cc(S(=O)(=O)N[C@@H](C(=O)O)C(C)C)ccc12	> 30	215	> 30	> 30
CC(C)[C@H](NS(=O)(=O)c1ccc2c(c1)sc1cc(N3CCOC3=O)ccc12)C(=O)O	> 30	140	> 30	> 30
